Experimental data from the CheMixHub viscosity set.
“And” between values parts separate entries of the source, which are not always exact repeats. Identical values can stand only once.

Test: xn = mol fraction of the nth substance listed

Brc1ccccc1 + ClC(Cl)(Cl)Cl
Conditions	viscosity [mPa·s]
298 K, 101.3 kPa, x2 = 0.1709	1.035
298 K, 101.3 kPa, x2 = 0.3202	1.011
298 K, 101.3 kPa, x2 = 0.5187	0.971
298 K, 101.3 kPa, x2 = 0.6674	0.942
298 K, 101.3 kPa, x2 = 0.8522	0.915
303.15 K, 101 kPa, x1 = 0.092	0.727
303.15 K, 101 kPa, x1 = 0.187	0.653
303.15 K, 101 kPa, x1 = 0.283	0.624
303.15 K, 101 kPa, x1 = 0.38	0.595
303.15 K, 101 kPa, x1 = 0.479	0.619
303.15 K, 101 kPa, x1 = 0.58	0.656
303.15 K, 101 kPa, x1 = 0.682	0.7
303.15 K, 101 kPa, x1 = 0.787	0.778
303.15 K, 101 kPa, x1 = 0.892	0.881
318 K, 101.3 kPa, x2 = 0.1581	0.8313
318 K, 101.3 kPa, x2 = 0.3169	0.8147
318 K, 101.3 kPa, x2 = 0.5212	0.7898
318 K, 101.3 kPa, x2 = 0.6657	0.7758
318 K, 101.3 kPa, x2 = 0.8618	0.76

COC(=O)CC(=O)OC + ClC(Cl)(Cl)Cl
303.15 K, 101 kPa
Conditions	viscosity [mPa·s]
x1 = 0.0856	0.9503
x1 = 0.1747	1.064
x1 = 0.2659	1.186
x1 = 0.3608	1.295
x1 = 0.4586	1.409
x1 = 0.5599	1.52
x1 = 0.6641	1.601
x1 = 0.7723	1.687
x1 = 0.8841	1.753

Brc1ccccc1 + ClC(Cl)=C(Cl)Cl
303.15 K, 101 kPa
Conditions	viscosity [mPa·s]
x2 = 0.1026	0.978
x2 = 0.1749	0.971
x2 = 0.2799	0.96
x2 = 0.3996	0.945
x2 = 0.4574	0.933
x2 = 0.5408	0.916
x2 = 0.6276	0.894
x2 = 0.7273	0.871
x2 = 0.8585	0.84
x2 = 0.9426	0.822

COC(=O)CC(=O)OC + ClC(Cl)Cl
303.15 K, 101 kPa
Conditions	viscosity [mPa·s]
x1 = 0.0727	0.612
x1 = 0.1507	0.727
x1 = 0.2329	0.845
x1 = 0.3213	0.968
x1 = 0.415	1.092
x1 = 0.5154	1.222
x1 = 0.6231	1.354
x1 = 0.7393	1.492
x1 = 0.8644	1.64

BrCCBr + ClCCCl
298.15 K, 101 kPa
Conditions	viscosity [mPa·s]
x2 = 0.175	1.421
x2 = 0.3753	1.216
x2 = 0.5066	1.117
x2 = 0.6547	1.006
x2 = 0.7793	0.9179
x2 = 0.8501	0.8648

Brc1ccccc1 + Clc1ccccc1
298.15 K, 101 kPa
Conditions	viscosity [mPa·s]
x2 = 0.299	0.934
x2 = 0.512	0.86
x2 = 0.676	0.823
x2 = 0.828	0.774

CC(F)(F)Cl + FC(F)Cl
Conditions	viscosity [mPa·s]
293.15 K, 101 kPa, x2 = 0.115	0.2343
293.15 K, 101 kPa, x2 = 0.331	0.2197
293.15 K, 101 kPa, x2 = 0.54	0.2009
293.15 K, 101 kPa, x2 = 0.635	0.2028
293.15 K, 101 kPa, x2 = 0.913	0.177
293.25 K, 101 kPa, x2 = 0.438	0.2153
293.35 K, 101 kPa, x2 = 0.822	0.189
293.73 K, 101.13 kPa, x2 = 0.526	0.195
312.35 K, 101 kPa, x2 = 0.731	0.1511
312.55 K, 101 kPa, x2 = 0.115	0.1951
312.75 K, 101 kPa, x2 = 0.913	0.1394
312.85 K, 101 kPa, x2 = 0.635	0.1609
312.95 K, 101 kPa, x2 = 0.331	0.1754
312.95 K, 101 kPa, x2 = 0.54	0.1615
313.15 K, 101 kPa, x2 = 0.822	0.1495
313.25 K, 101 kPa, x2 = 0.438	0.1749

COc1ccccc1O + Nc1ccccc1
303.15 K, 101 kPa
Conditions	viscosity [mPa·s]
x2 = 0.1	4.74
x2 = 0.2	4.9
x2 = 0.3	5.11
x2 = 0.35	5.15
x2 = 0.4	5.23
x2 = 0.45	5.12
x2 = 0.5	5.09
x2 = 0.55	4.94
x2 = 0.6	4.86
x2 = 0.7	4.58
x2 = 0.8	4.23
x2 = 0.9	3.61

CSCC[C@H](N)C(=O)O + O
viscosity, 101 kPa
Conditions	293.15 K	298.15 K	303.15 K	308.15 K	313.15 K	318.15 K
x1 = 0.00045	1.011 mPa·s and 1.009 mPa·s	0.8992 mPa·s and 0.8967 mPa·s	0.8057 mPa·s and 0.8039 mPa·s	0.727 mPa·s and 0.7258 mPa·s	0.6602 mPa·s and 0.6603 mPa·s	0.6044 mPa·s
x1 = 0.0009	1.019 mPa·s and 1.016 mPa·s	0.9063 mPa·s and 0.903 mPa·s	0.8126 mPa·s and 0.8103 mPa·s	0.734 mPa·s and 0.7327 mPa·s	0.6671 mPa·s and 0.6678 mPa·s	–
x1 = 0.0013	1.023 mPa·s	0.9098 mPa·s	0.8169 mPa·s	0.7392 mPa·s	0.6743 mPa·s	–
x1 = 0.00135	–	0.9131 mPa·s	0.8195 mPa·s	0.7408 mPa·s	0.6735 mPa·s	0.6178 mPa·s
x1 = 0.001798	–	–	0.8264 mPa·s	0.7475 mPa·s	–	0.6244 mPa·s
x1 = 0.0018	–	0.9165 mPa·s	0.8232 mPa·s	0.745 mPa·s	0.6815 mPa·s	–
x1 = 0.002247	1.039 mPa·s	0.9266 mPa·s	0.833 mPa·s	0.754 mPa·s	0.687 mPa·s	0.631 mPa·s
x1 = 0.00225	1.037 mPa·s	0.9232 mPa·s	0.8295 mPa·s	0.7524 mPa·s	0.688 mPa·s	–
x1 = 0.00269	1.044 mPa·s	0.9295 mPa·s	0.8368 mPa·s	0.7588 mPa·s	0.6951 mPa·s	–
x1 = 0.002693	1.046 mPa·s	0.9335 mPa·s	0.8396 mPa·s	0.7607 mPa·s	0.6936 mPa·s	0.6373 mPa·s
x1 = 0.00314	1.05 mPa·s	0.936 mPa·s	0.8435 mPa·s	0.7657 mPa·s	0.7019 mPa·s	–
x1 = 0.003143	1.053 mPa·s	0.9403 mPa·s	0.8465 mPa·s	0.7675 mPa·s	0.6999 mPa·s	0.6436 mPa·s
x1 = 0.003588	1.06 mPa·s	0.9474 mPa·s	0.8535 mPa·s	0.7743 mPa·s	0.7063 mPa·s	0.6495 mPa·s
x1 = 0.00359	1.057 mPa·s	0.9426 mPa·s	0.85 mPa·s	0.7724 mPa·s	0.7087 mPa·s	–

Cc1ccc[n+](CCCO)c1.[Cl-] + O
viscosity [mPa·s], 100 kPa
Conditions	x1 = 0.001832	x1 = 0.002695	x1 = 0.003588	x1 = 0.005369	x1 = 0.007151	x1 = 0.008924
293.15 K	1.065	1.09	1.114	1.16	1.204	1.246
298.15 K	0.943	0.965	0.986	1.025	1.063	1.1
303.15 K	0.841	0.86	0.877	0.912	0.945	0.976
308.15 K	0.757	0.773	0.789	0.819	0.848	0.876
313.15 K	0.682	0.696	0.709	0.735	0.76	0.784

O=C[C@H](O)[C@@H](O)[C@H](O)CO + O
viscosity, 101 kPa
Conditions	x1 = 0.000546	x1 = 0.0009	x1 = 0.00124	x1 = 0.0031	x1 = 0.006	x1 = 0.0063	x1 = 0.013
293.15 K	–	–	–	1.053 mPa·s	1.118 mPa·s and 1.118 mPa·s (2×)	1.118 mPa·s	1.229 mPa·s and 1.229 mPa·s and 1.229 mPa·s
298.15 K	0.9164 mPa·s	0.9244 mPa·s	0.9306 mPa·s	–	0.9937 mPa·s and 0.9937 mPa·s and 0.9937 mPa·s	0.9937 mPa·s	–
303.15 K	–	–	–	0.8381 mPa·s	0.8889 mPa·s and 0.8889 mPa·s (2×)	0.8889 mPa·s	0.986 mPa·s and 0.986 mPa·s and 0.986 mPa·s
308.15 K	–	–	–	0.7529 mPa·s	0.7916 mPa·s and 0.7916 mPa·s and 0.7916 mPa·s	0.7916 mPa·s	0.8843 mPa·s and 0.8843 mPa·s (2×)
313.15 K	–	–	–	0.683 mPa·s	0.7163 mPa·s and 0.7163 mPa·s and 0.7163 mPa·s	0.7163 mPa·s	0.798 mPa·s and 0.798 mPa·s and 0.798 mPa·s
318.15 K	–	–	–	–	0.6565 mPa·s and 0.6565 mPa·s and 0.6565 mPa·s	0.6565 mPa·s	0.7216 mPa·s and 0.7216 mPa·s and 0.7216 mPa·s
